Results from patent US20230167408A1, “METHODS AND COMPOSITIONS FOR MAINTAINING AND EXPANDING HEMATOPOIETIC STEM CELLS” (Trailhead Biosystems Inc., priority 2021, published 2023).
Entries after “also recorded” stand apart in the source; their conditions may differ.

Assays:
Format in all cases: cell-based, human
[1] = tested on: CD34+ population of cells isolated from cord blood; test: Factor criticality analysis (dynamic profile analysis) of HSC expansion recipe; parameters: GATA2 expression level / MEG3 expression level / CRHBP expression level: unit not given here
Text: In this example, to assess the impact of elimination of each validated factor identified as described in Example 1, dynamic profile analysis was used and compared the expression level of genes of interest in the absence of each finalized factor while others are kept present. […] The results of the criticality analysis for the factors FICZ, LPA, Vit. C and Activin A are shown in FIG. 6A-B. The results of the criticality analysis for VPA are shown in FIG. 7A-B. The results of the criticality analysis for Yhhu 3792 are shown in and FIG. 8A-B.
For the HSC expansion recipe, each of the six finalized factors were removed while other five factors were present and the expression levels of GATA2, HOXA5, CRHBP was assessed compared to the presence of all […]. Because SCF and TPO are cytokines impacting cell growth and survival, our recipe included these cytokines as well. When FICZ was removed, values for GATA2 expression decreased from 642 to 512, while HOXA5 and MEG3 expression was unchanged. […] Removal of Vit.C decreased the level of MEG3 from 82 to 53. Activin A is a critical factor for MEG3, since its removal decreases MEG3 levels from 81 to 40.

[2] = tested on: CD34+ population of cells isolated from cord blood; test: HD-DoE effector experiments, gene expression modeling after 3-day treatment; settings: for factor contribution (impact) on expression of CRHBP: 8-factor experiment tropoelastin, lipid mixture, propionate, biotin, geltrex, N-acetyl cysteine, prostaglandin E2, VPA, FIG. 3/4; for factor contribution on expression of CRHBP: Yhhu 3792, fibronectin, TPCA-1, GW9662, Z-vad-fmk, VEGF, FIG. 5; for factor contribution on expression of MEG3: same 8-factor experiment optimized for maximum MEG3, FIG. 2
Text: This example utilizes a method of High-Dimensional Design of Experiments (HD-DoE), as previously described in Bukys et al. (2020) Iscience 23:101346. The method employs computerized design geometries to simultaneously test multiple process inputs and offers mathematical modeling of a deep effector/response space. The method allows for finding combinatorial signaling inputs that control a complex process, such as during cell differentiation. It allows testing of multiple plausible critical process parameters, as such parameters impact output responses, such as gene expression. Because gene expression provides hallmark features of the phenotype of, for example, a human cell, the method can be applied to identify, and understand, which signaling pathways control cell fate. In the current example, the HD-DOE method was applied with the intent to find conditions for expansion and maintenance of HSCs.
Specifically, to develop the HSC recipe, the impact of agonists and antagonists of multiple signaling pathways (herein called effectors) were tested on expression of two sets of 53 pre-selected genes after a 3-day treatment. Specific genes in the measured subset are highly enriched in HSC and include CRHBP, MLLT3, MEG3, MECOM, HOXA5 and GATA2. The effectors chosen include small molecules or proteins, some of which are used during in vitro expansion of HSC.
To test the effectors, experiments with at least 8 factors were designed that can assess the response of cells to 48 or more different combinations of effectors in a range of concentrations. To analyze the models, we focused on expression of genes that are either expressed or enriched in primitive HSC including CRHBP, GATA2, MLLT3 and MEG3. The impact of each effector on gene expression level is defined by a parameter called factor contribution that is calculated for each effector during the modeling. All the experiments were conducted using a CD34^+ population of cells isolated from cord blood.
To identify the recipe for HSC expansion, cells were treated with various effectors for 3 days in media containing stem cell factor (SCF) and thrombopoietin (TPO) and the gene expression of cells was modeled. […] Additionally, on this model we observed NOTCH1 upregulation and MPO downregulation. […] Previous studies have shown that NOTCH1 activation increases HSC self-renewal in vivo (Stier et al. (2002) Blood 99:2369-78).
To further improve the recipe for HSC maintenance and expansion, additional HD-DoE experiments were performed. […] The goal was to evaluate further factors to possibly increase the complexity of the signaling inputs to attain effective fate control. As previously, we focused on expression of HSC enriched genes mentioned earlier. An 8-factor experiment was performed, testing tropoelastin, lipid mixture, propionate, biotin, geltrex, N-acetyl cysteine, prostaglandin E2, and VPA. Similar to the previous experiment, CD34^+ cells were treated with 48 conditions of combinations of the factors for 3 days and gene expression analysis and modeling was performed.
To further improve the recipe for HSC maintenance and expansion, additional HD-DoE experiments were performed. Another 8-factor experiment was performed consisting of LPA, Yhhu 3792, fibronectin, TPCA-1, GW9662, Z-vad-fmk, VEGF and activin A. Similarly to the previous experiment, CD34^+ cells were treated with 48 conditions of combinations of the factors for 3 days and then gene expression analysis experiments were conducted.

CD34+ cells = test: Culture of CD34+ cells in the presence of commonly used cytokines
Procedure: To further validate the HSC culture recipe described in Example 1, CD34+ cord blood derived cells were grown for 7 days in media comprising the ingredients shown in Table 1 and flow cytometry analysis was used to assess markers of the LT-HSC state. Markers tested included Lineage (CD3, CD14, CD16, CD19, CD20, CD56), CD34, CD38, CD45RA and CD90. Additionally, cells were grown in media with SCF and TPO as a control, commonly used by others to promote HSC expansion. […] 100,000 cells were plated for each condition.

[3] = named factor removed, other factors present
[4] = 8-factor experiment LPA, FICZ, Pyrintegrin, Laminin521, G0693, Vit.C, G-SCF, activin A, 3 days, media with SCF and TPO, FIG. 1/2
[5] = 8-factor experiment LPA, activin A, 3 days
[6] = 8-factor experiment with tropoelastin ... VPA
[7] = 8-factor experiment with tropoelastin ... VPA optimized for maximum GATA2, FIG. 4

O=Cc1c2c(cc3c1=Nc1ccccc1-3)=Nc1ccccc1-2 [FICZ, 6-Formylindolo[3,2-b]carbazole]
GATA2 expression level ([1]; all finalized factors present): 642 | GATA2 expression level [1, 3]: 512 | HOXA5 expression level [1, 3]: unchanged | MEG3 expression level [1, 3]: unchanged | factor contribution (impact) on expression of GATA2 [2, 4]: 21 | factor contribution (impact) on expression of GATA2 ([2]; 8-factor experiment LPA, FICZ, Pyrintegrin, Laminin521, G0693, Vit.C, G-SCF, activin A, 3 days, media with SCF and TPO, FIG. 1/2, listed as FCIZ): positive impact

CC(=O)N[C@@H](CS)C(=O)O [N-acetyl cysteine]
factor contribution (impact) on expression of CRHBP ([2]; 3 days): < 1

CCC(=O)O [Propionate, propionate]
factor contribution (impact) on expression of CRHBP ([2]; 3 days): 8

CCCC(CCC)C(=O)O [VPA, Valproic acid]
CRHBP expression level ([1]; all finalized factors present): 285 | MEG3 expression level ([1]; all finalized factors present): 106 | CRHBP expression level [1, 3]: 138 | GATA2 expression level [1, 3]: reduced | MEG3 expression level [1, 3]: 52 | impact on expression of MEG3 ([2]; 8-factor experiment with tropoelastin ... VPA, FIG. 4): positive impact

COc1cccc(Oc2cccc3nc(Nc4ccc(C(C)C)cc4)nc(N)c23)c1 [Yhhu 3792]
CRHBP expression level ([1]; all finalized factors present): 202 | CRHBP expression level [1, 3]: 169 | factor contribution on expression of CRHBP [2, 5]: 19

O=C(O)CCCC[C@@H]1SC[C@@H]2NC(=O)N[C@@H]21 [biotin]
factor contribution (impact) on expression of CRHBP ([2]; 3 days): 5

CCCCC[C@H](O)/C=C/[C@H]1[C@H](O)CC(=O)[C@@H]1C/C=C\CCCC(=O)O [prostaglandin E2]
effect of treatment on other HSC enriched genes [2, 6]: downregulates | factor contribution (impact) on expression of GATA2 [2, 7]: 25

IL6: commonly used cytokine to expand HSC
lineage bias of CD34+ cells cultured in the presence of the cytokine (CD34+ cells): induction of a myeloid bias

L-ascorbic acid phosphate sesquimagnesium salt hydrate [Vit.C]
MEG3 expression level ([1]; all finalized factors present): 82 | MEG3 expression level [1, 3]: 53 | factor contribution (impact) on expression of GATA2 ([2]; 8-factor experiment LPA, FICZ, Pyrintegrin, Laminin521, G0693, Vit.C, G-SCF, activin A, 3 days, media with SCF and TPO, FIG. 1/2, hydrate): 12 | factor contribution (impact) on expression of GATA2 ([2]; 8-factor experiment LPA, FICZ, Pyrintegrin, Laminin521, G0693, Vit.C, G-SCF, activin A, 3 days, media with SCF and TPO, FIG. 1/2, listed as Vit. C, hydrate): positive impact | factor contribution on expression of MEG3 [2]: 16

fibronectin
factor contribution on expression of CRHBP [2, 5]: 18

lysophosphatidic acid [LPA]
GATA2 expression level ([1]; all finalized factors present): 644 | GATA2 expression level [1, 3]: 525 | factor contribution on expression of CRHBP [2, 5]: 8

B1: Activin A: TGFb pathway agonist (protein, UniProt P08476 311-426, looked up)
Inhibin beta A chain: GLECDGKVNICCKKQFFVSFKDIGWNDWIIAPSGYHANYCEGECPSHIAGTSGSSLSFHSTVINHYRMRGHSPFANLKSCCVPTKLRPMSMLYYDDGQNIIKKDIQNMIVEECGCS
modifications: Inhibin beta A chain
notes: TGFb pathway agonist
MEG3 expression level ([1]; all finalized factors present): 81 | GATA2 expression level [1, 3]: positive impact | HOXA5 expression level [1, 3]: positive impact | MEG3 expression level [1, 3]: 40 | factor contribution (impact) on expression of GATA2 [2, 4]: modest; also recorded: positive impact | factor contribution on expression of CRHBP [2, 5]: 26 | factor contribution on expression of MEG3 [2]: 23

B2: G-CSF: commonly used cytokine to expand HSC (protein, UniProt P09919 31-207, looked up)
Granulocyte …: TPLGPASSLPQSFLLKCLEQVRKIQGDGAALQEKLVSECATYKLCHPEELVLLGHSLGIPWAPLSSCPSQALQLAGCLSQLHSGLFLYQGLLQALEGISPELGPTLDTLQLDVADFATTIWQQMEELGMAPALQPTQGAMPAFASAFQRRAGGVLVASHLQSFLEVSYRVLRHLAQP
lineage bias of CD34+ cells cultured in the presence of the cytokine (CD34+ cells): induction of a myeloid bias

B3: tropoelastin: effector tested in the 8-factor experiment (protein, UniProt P15502 27-786, looked up)
Elastin: GGVPGAIPGGVPGGVFYPGAGLGALGGGALGPGGKPLKPVPGGLAGAGLGAGLGAFPAVTFPGALVPGGVADAAAAYKAAKAGAGLGGVPGVGGLGVSAGAVVPQPGAGVKPGKVPGVGLPGVYPGGVLPGARFPGVGVLPGVPTGAGVKPKAPGVGGAFAGIPGVGPFGGPQPGVPLGYPIKAPKLPGGYGLPYTTGKLPYGYGPGGVAGAAGKAGYPTGTGVGPQAAAAAAAKAAAKFGAGAAGVLPGVGGAGVPGVPGAIPGIGGIAGVGTPAAAAAAAAAAKAAKYGAAAGLVPGGPGFGPGVVGVPGAGVPGVGVPGAGIPVVPGAGIPGAAVPGVVSPEAAAKAAAKAAKYGARPGVGVGGIPTYGVGAGGFPGFGVGVGGIPGVAGVPGVGGVPGVGGVPGVGISPEAQAAAAAKAAKYGAAGAGVLGGLVPGAPGAVPGVPGTGGVPGVGTPAAAAAKAAAKAAQFGLVPGVGVAPGVGVAPGVGVAPGVGLAPGVGVAPGVGVAPGVGVAPGIGPGGVAAAAKSAAKVAAKAQLRAAAGLGAGIPGLGVGVGVPGLGVGAGVPGLGVGAGVPGFGAGADEGVRRSLSPELREGDPSSSQHLPSTPSSPRVPGALAAAKAAKYGAAVPGVLGGLGALGGVGIPGGVVGAGPAAAAAAAKAAAKAAQFGLVGAAGLGGLGVGGLGVPGVGGLGGIPPAAAAKAAKYGAAGLGGVLGGAGQFPLGGVAARPGFGLSPIFPGGACLGKACGRKRK
effect of treatment on other HSC enriched genes [2, 6]: downregulates | factor contribution (impact) on expression of GATA2 [2, 7]: 17
